Data: patent US20240043392A1, “NOVEL BIPHENYL DERIVATIVE AND PREPARATION METHOD AND PHARMACEUTICAL USE THEREOF” (XI'AN XINTON PHARMACEUTCAL RESEARCH CO., LTD., priority 2021, published 2024)
pIC50, pKd: −log10 of the molar value. Like-named read-outs stand apart in the source and are kept apart here.

How the values were obtained:
hPD-1/hPD-L1 interaction = hPD-1/hPD-L1 interaction (Homo sapiens (Human), UniProt Q9NZQ7); details: read-out: PD-1/PD-L1 IC50
Fc-hPD-L1 protein = Fc-hPD-L1 protein (Homo sapiens (Human), UniProt Q9NZQ7); assay type: binding
Sequence of Fc-hPD-L1 protein (Q9NZQ7 19-238 limits assumed): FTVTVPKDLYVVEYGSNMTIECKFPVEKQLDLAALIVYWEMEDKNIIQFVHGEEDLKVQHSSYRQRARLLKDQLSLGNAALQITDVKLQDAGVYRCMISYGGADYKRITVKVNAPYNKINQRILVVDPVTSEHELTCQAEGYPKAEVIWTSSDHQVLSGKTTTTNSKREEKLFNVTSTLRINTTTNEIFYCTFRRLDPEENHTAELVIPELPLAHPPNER

C57BL/6 mice [1] = experiment: Acute toxicity test, intraperitoneal injection; details: 125 mg/kg
C57BL/6 mice [2] = details: mouse, in vivo
[3] = system: MC38-hPDL1 colon cancer cells; set-up: species or system mice; details: mouse, in vivo

Sequence of hPD-1/hPD-L1 interaction (Q9NZQ7 19-238): as the sequence (Q9NZQ7 19-238 limits assumed) above

Row | Compound | pIC50 (hPD-1/hPD-L1 interaction) | pKd (Fc-hPD-L1 protein) | further results
1 | COc1cc(OCc2cccc(-c3cccc(OCCCn4cc(CNCCC(=O)O)nn4)c3C)c2C)c(Cl)cc1CNCCC(=O)O [II-12, 3-((4-((3′-(3-(4-(((2-carboxyethyl)amino)methyl)-1H-1,2,3-triazol-1-)propoxyl)-2,2′-dimethyl-[1,1′-biphenyl]-3-)methoxy)-5-chloro-2-methoxybenzyl)amino)propionic acid] | 8.00 to 10.00 | 7.00 to 10.00 | –
2 | COc1nc(OCc2cccc(-c3ccccc3)c2C)ccc1CNCCNC(C)=O [BMS-202] | – | – | body weight (C57BL/6 mice [1]): decreased significantly; state of mice (clinical signs) (C57BL/6 mice [1]): obvious signs of convulsions and tremors
3 | (4-((3′-(2-(4-(((1-carboxy-2-hydroxyethyl)amino)methyl)-1H-1,2,3-triazol-1-)ethyl oxy)-2,2′-dimethyl-[1,1′-biphenyl]-3-)methoxy)-5-chloro-2-((5-cyanopyridin-3-)methoxy)ben zyl)serine [II-6] | 6.00 to 7.00 | – | –
4 | N-(2-((4-((3′-(3-(4-(((2-acetylaminoethyl)amino) methyl)-1H-1,2,3-triazole-1-)propoxy)-2,2′-dimethyl-[1,1′-biphenyl]-3-)methoxy)-5-chloro-2-((5-cyanopyridine-3-)methoxy) benzyl)amino)ethyl)acetamide [II-3] | 7.00 to 8.00 | 7.00 to 10.00 | –
5 | COc1cc(OCc2cccc(-c3cccc(OCCCn4cc(CNCCNC(C)=O)nn4)c3C)c2C)c(Cl)cc1CNCCNC(C)=O [II-10, N-(2-((4-((3′-(3-(4-(((2-acetylaminoethyl)amino)methyl)-1H-1,2,3-triazole-1-)propoxy)-2,2′-dimethyl-[1,1′-biphenyl]-3-)methoxy)-5-chloro-2-methoxybenzyl)amino)ethyl)acetamide] | 7.00 to 8.00 | – | –
6 | CCOC(=O)CNCc1cn(CCCOc2cccc(-c3cccc(COc4cc(OCc5cncc(C#N)c5)c(CNCC(=O)OCC)cc4Cl)c3C)c2C)nn1 [II-20, (5-chloro-2-((5-cyanopyridin-3-yl)methoxy)-4-((3′-(3-(4-(((2-ethoxy-2-oxoethyl)amino)methyl)-1H-1,2,3-triazol-1-)propoxy)-2,2′-dimethyl-[1,1′-biphenyl]-3-)methoxy)benzyl)glycine ethyl ester] | 7.00 to 8.00 | 6.00 to 7.00 | –
7 | COc1cc(OCc2cccc(-c3cccc(OCCCn4cc(CN5CC[C@@H](O)C5)nn4)c3C)c2C)c(Cl)cc1CN1CC[C@@H](O)C1 [II-11, (R)-1-((1-(3-((3′-((2-chloro-4-(((R)-3-hydroxypyrrolidin-1-yl)methyl)-5-methoxyphenoxy)methyl)-2,2′-dimethyl-[1,1′-biphenyl]-3-)oxy)propyl)-1H-1,2,3-triazol-4-)methyl)py rrolidin-3-ol] | 7.00 to 8.00 | 7.00 to 10.00 | –
8 | COc1cc(OCc2cccc(-c3cccc(OCCCn4cc(CN5CCCCC5C(=O)O)nn4)c3C)c2C)c(Cl)cc1CN1CCCCC1C(=O)O (stereo not drawn) [II-13] | 8.00 to 10.00 | – | –
9 | COc1cc(OCc2cccc(-c3cccc(OCCCn4cc(CNC(C)C(=O)O)nn4)c3C)c2C)c(Cl)cc1CN[C@@H](C)C(=O)O (stereo partly drawn) [II-15, (4-((3′-(3-(4-(((1-carboxyethyl)amino)methyl)-1H-1,2,3-triazol-1-yl)propoxy)-2 ,2′-dimethyl-[1,1′-biphenyl]-3-)methoxy)-5-chloro-2-methoxybenzyl)alanine] | 8.00 to 10.00 | – | –
10 | COc1cc(OCc2cccc(-c3cccc(OCCCn4cc(CN5CCCC5C(N)=O)nn4)c3C)c2C)c(Cl)cc1CN1CCCC1C(N)=O (stereo not drawn) [II-8, 1-(4-((3′-(3-(4-((2-carbamoylpyrrolidin-1-)methyl)-1H-1,2,3-triazol-1-) Propoxy)-2,2′-dimethyl-[1,1′-biphenyl]-3-)methoxy)-5-chloro-2-methoxybenzyl)pyrrolidine-2-formamide] | 7.00 to 8.00 | 7.00 to 10.00 | –
11 | Cc1c(COc2cc(OCc3cncc(C#N)c3)c(CN[C@@H](CO)C(=O)O)cc2Cl)cccc1-c1cccc(OCCCn2cc(CNC(CO)C(=O)O)nn2)c1C (stereo partly drawn) [II-1, (4-((3′-(3-(4-(((1-carboxy-2-hydroxyethyl)amino)methyl)-1H-1,2,3-triazole-1-)propaneoxy)-2,2′-dimethyl-[1,1′-biphenyl]-3-)methoxy)-5-chloro-2-((5-cyanopyridin-3-)methoxy)benzyl)serine] | 8.00 to 10.00 | 7.00 to 10.00 | body weight (C57BL/6 mice [2]): nor did their body weight decrease; inhibitory effect on tumor growth [3]: weak inhibitory effect on tumor growth; proliferation of CD3+CD4+T cell [3]: can promote the proliferation; proliferation of CD3+CD8+T cell [3]: can promote the proliferation; relative tumor inhibition rate [3]: 45.8%; tumor weight [3]: excellent anti-tumor effect
12 | 5-((4-chloro-2-(((2-hydroxyethyl)amino)methyl)-5-((3′-(3-(4-(((2-hydroxyethyl)amino)methy 1 Base)-1H-1,2,3-triazol-1-)propoxy)-2,2′-dimethyl-[1,1′-biphenyl]-3-)methoxy) phenoxy) methyl)nicotinonitrile [II-2] | 7.00 to 8.00 | – | –
13 | (4-((3′-(3-(4-(((carboxymethyl)amino)methyl)-1H-1,2,3-triazol-1-)propoxy)-2, 2′-dichloro-[1,1′-biphenyl]-3-)methoxy)-5-chloro-2-((5-cyanopyridin-3-)methoxy)benzyl) glycine [II-17] | 6.00 to 7.00 | – | –
14 | 1-(4-((3′-(3-(4-((2-carbamoylpyrrolidin-1-)methyl)-1H-1,2,3-triazol-1-) Propoxy)-2,2′-dimethyl-[1,1′-biphenyl]-3-methoxy)-5-chloro-2-((5-cyanopyridine-3-)methox y)benzyl) pyrrolidine-2-carboxamide [II-4] | 7.00 to 8.00 | – | –
15 | CCOC(=O)[C@@H](CO)NCc1cn(CCCOc2cccc(-c3cccc(COc4cc(OCc5cncc(C#N)c5)c(CN[C@H](CO)C(=O)OCC)cc4Cl)c3C)c2C)nn1 [II-18, (5-chloro-2-((5-cyanopyridin-3-)methoxy)-4-((3′-(3-(4-((((R)-1-ethoxy-3-hydroxy-1-oxopropan-2-)amino)methyl)-1H-1,2,3-triazol-1-)propoxy)-2,2′-dimethyl-[1,1′-biphenyl]-3-)methoxy)benzyl)-D-serine ethyl ester] | 7.00 to 8.00 | 6.00 to 7.00 | body weight (C57BL/6 mice [2]): nor did their body weight decrease; proliferation of CD3+CD4+T cell [3]: can promote the proliferation; proliferation of CD3+CD8+T cell [3]: can promote the proliferation; relative tumor inhibition rate [3]: 49.6%; tumor weight [3]: excellent anti-tumor effect
16 | (4-((3′-(3-(4-(((carboxymethyl)amino)methyl)-1H-1,2,3-triazol-1-)propoxy)-2,2′-dimethyl-[1,1′-biphenyl]-3-)methoxy)-5-chloro-2-((5-cyanopyridin-3-)methoxy)benzyl) glycine [II-5] | 8.00 to 10.00 | 7.00 to 10.00 | –
17 | (4-((3′-(3-(4-(((1-carboxy-2-hydroxyethyl)amino)methyl)-1H-1,2,3-triazol-1-)propoxyl)-2,2′-dichloro-[1,1′-biphenyl]-3-)methoxy)-5-chloro-2-((5-cyanopyridin-3-)methoxy)benzyl)serine [II-16] | 7.00 to 8.00 | – | –
18 | COC(=O)[C@@H](CO)NCc1cn(CCCOc2cccc(-c3cccc(COc4cc(OCc5cncc(C#N)c5)c(CN[C@H](CO)C(=O)OC)cc4Cl)c3C)c2C)nn1 [II-19, (5-chloro-2-((5-cyanopyridin-3-)methoxy)-4-((3′-(3-(4-((((R)-1-methoxy-3-hydroxy-1-oxopropan-2-)amino)methyl)-1H-1,2,3-triazol-1-)propoxy)-2,2′-dimethyl-[1,1′-biphenyl]-3-)methoxy)benzyl)-D-serine methyl ester] | 7.00 to 8.00 | 6.00 to 7.00 | –
19 | CCOC(=O)[C@@H](CO)NCc1cn(CCCOc2cccc(-c3cccc(COc4cc(OC)c(CN[C@H](CO)C(=O)OCC)cc4Cl)c3C)c2C)nn1 [II-21, ((1-(3-((3′-((2-chloro-4-((((R)1-ethoxy-3-hydroxy-1-oxopropan-2-)amino)methyl)-5-methoxyphenoxy)methyl)-2,2′-dimethyl-[1,1′-biphenyl]-3-)oxy)propyl)-1H-1,2,3-triazol-4-)methyl)-D-serine ethyl ester] | 7.00 to 8.00 | 6.00 to 7.00 | –
20 | (4-((3′-(3-(4-(((1-carboxy-2-hydroxyethyl)amino)methyl)-1H-1,2,3-triazol-1-)propoxy)-2,2′-d imethyl-[1,1′-biphenyl]-3-yl)methoxy)-5-chloro-2-methoxybenzyl)serine [II-7] | 8.00 to 10.00 | 7.00 to 10.00 | –
21 | COc1cc(OCc2cccc(-c3cccc(OCCCn4cc(CNCCO)nn4)c3C)c2C)c(Cl)cc1CNCCO [II-9] | 8.00 to 10.00 | 7.00 to 10.00 | –
